For 51 compounds, IC50 and IC90 results are on record in PubChem BioAssay AID449764 (Southern Research Specialized Biocontainment Screening …, 2010).

The assay deals with Mycobacterium tuberculosis H37Rv growth inhibition, no glycerol. In words: Mycobacterium tuberculosis H37Rv growth inhibition, no glycerol, confirmatory dose response (AID 449764).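 For all read-outs here: growth read after 7 days of incubation.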 The following applies: for IC90: measured here: IC90 growth inhibition.

As to `CCCCCCCNC(=O)C1(CC2CC(c3cccc(Br)c3)=NO2)CCNCC1` (configuration not stated), the IC50 is 52.1 µM and the 90% effect concentration (IC90) was 80.4 µM.
On to `CCc1ccc(/C=C2/C(=O)N(C)C(=S)N2CC(=O)OC)s1`, for which the IC50 is 4.81 µM and the IC90 is 6.97 µM.
As for `COC(=O)C(CCSC)NC(=O)c1cn(-c2ccc(OC)cc2)c(=O)c2ccccc12` (configuration not stated), the IC50 is 24.3 µM and the IC90 was over 25 µM.
Take `COc1ccc(-c2csc(NC(C)c3nc4cc(Cl)c(N5CCCCC5)cc4n3CCCO)n2)cc1` (configuration not stated): the IC50 was 23 µM and the IC90 was determined as 26.2 µM.
For `O=C(OCn1ncc(Br)c(Br)c1=O)c1ccc(F)cc1` the same measures were 2.9 µM and 4.77 µM.
As to `Cc1ccc(C)c(NC(=O)c2cc(-c3ccccc3)nn2-c2ccccc2)c1`, the IC50 was 34.6 µM and the IC90 was 55.9 µM.
Turning to `CCn1c(C)nc2cc(C(=O)OC(C(F)(F)C(F)F)C(F)(F)C(F)F)ccc21`, the IC50 is 21.2 µM and the IC90 was 25.8 µM.
In the case of `CCCCC(=O)Nc1sc2c(c1C(=O)OCC)CCC(C=O)=C2Cl`, the IC50 was 38.8 µM and the IC90 was over 100 µM.
With `Oc1cc(Nc2ccccc2)cc2cccnc12`, the IC50 was 19.7 µM and the IC90 was determined as 24.7 µM.
Regarding `CCc1ccc(N=Nc2ccc(O)c3[nH]cnc23)cc1`, the IC50 was 40.7 µM and the IC90 was over 100 µM.
Take `Cc1nn(-c2ccccc2)c(N)c1N=Nc1ccc(Cl)cc1`: the IC50 was 52.1 µM and the IC90 was over 100 µM.
Regarding `S=C(NCc1ccc(Cl)cc1)NC12CC3CC(CC(C3)C1)C2`, the IC50 was 3.83 µM and the IC90 was 28.1 µM.
As for `Cc1ccc(C(=O)C[n+]2cc(-c3ccc(C)cc3)n3c2CCCCC3)cc1`, the IC50 was 22.5 µM and the concentration for an effect of 90% (IC90) was 25.4 µM.
Regarding `COc1ccc(C2CC2/C(C)=N/OC(=O)c2ccc(F)cc2)cc1` (configuration not stated), the IC50 is 25.3 µM and the IC90 was found to be 52.2 µM.
In the case of `COc1cc(C)c(/C=C/C(C)=C/C=C/C(C)=C/C(=O)O)c(C)c1C`, the IC50 was 24.7 µM and the IC90 was 43.5 µM.
For the compound `Cc1oc2c(c1C(=O)NCc1cccnc1)C(=O)c1ccccc1C2=O`, the IC50 was 12.3 µM and the IC90 stood at 14.2 µM.
Taken in the same sequence, the figures for `O=C(NN=C1c2ccccc2-c2ccccc21)c1cccc(Br)c1` were 42.2 µM and over 100 µM.
Take `O=[N+]([O-])c1ccc(C2Oc3ccccc3C3CC(c4ccccc4)=NN32)s1` (configuration not stated): the IC50 was 7.13 µM and the IC90 was 9.52 µM.
On to `Cc1sc2ncnc(N3CCC(C(=O)NCC(=O)Nc4ccc(F)c(F)c4)CC3)c2c1C`, for which the IC50 was 46.7 µM and the IC90 amounted to 53.1 µM.
For `Cc1ccc(/C=C2\C(=O)Nc3ccccc32)o1`, the IC50 is 4.9 µM and the IC90 worked out at 6.56 µM.
Turning to `Cc1ccccc1-n1c(SCC(=O)N/N=C/c2c(C)nn(-c3ccccc3)c2C)nc2ccccc2c1=O`, the IC50 is 4.6 µM and the IC90 is 6.27 µM.
With `CCCCSCCCNC(=O)c1cn(CC)c2ccc(S(=O)(=O)N3CCOCC3)cc2c1=O`, the IC50 was 44.3 µM and the IC90 worked out at 50.8 µM.
As to `CCCCC(O)(CCCC)C(=O)NN(C(=O)CCl)c1ccccc1`, the IC50 was 11.1 µM and the IC90 was 22.8 µM.
Consider `N/C(=N\OC(=O)Nc1ccc(Cl)c(Cl)c1)c1ncc(C(F)(F)F)cc1Cl`, for which the IC50 was 28.9 µM and the IC90 is 35.7 µM.
On to `Cc1ccc(C)c(NC(CC(=O)c2ccccc2)C(=O)OCC(=O)c2cccs2)c1` (configuration not stated), for which the IC50 is 11.1 µM and the IC90 came to 11.7 µM.
For `Cc1nc2ccc(NC(=O)c3ccc([N+](=O)[O-])cc3[N+](=O)[O-])cc2s1`, the IC50 was 35.7 µM and the IC90 was over 100 µM.
As for `CN(C)S(=O)(=O)c1cccc(NC(=O)CSc2cccc3cccnc23)c1`, the IC50 is 60.6 µM and the IC90 stood at 68.2 µM.
As to `CCc1cc2c(=O)n(C(C)C(=O)OC3CCCCC3)cnc2s1` (configuration not stated), the IC50 was 24.1 µM and the 90% effect concentration (IC90) amounted to 52 µM.
On to `COc1ccc(N(CC(=O)Nc2ccccc2C(N)=O)S(=O)(=O)c2ccc(C)c([N+](=O)[O-])c2)cc1`, for which the IC50 is 96.9 µM and the 90% effect concentration (IC90) is over 100 µM.
Regarding `CCOC(=O)c1c(-c2ccc(OC)cc2)csc1NC(=O)CNCc1ccco1`, the IC50 is 22.3 µM and the IC90 came out at 25.5 µM.
Taken in the same sequence, the figures for `COc1ccc(Nc2nc(N3CCCCC3)nc3ccccc23)c(OC)c1` were 22.7 µM and 26 µM.
For the compound `COc1ccc(/C=C2\CCC/C(=C\C=N\N(C)C)C2=O)cc1`, the IC50 is 12.4 µM and the IC90 was found to be 17.8 µM.
For `Clc1cccc(-c2cc3nc4c(c(NCc5ccco5)n3n2)CCCC4)c1` the same measures were 22.1 µM and 24.7 µM.
Consider `O=C(NC(=S)N1CCc2ccccc21)c1ccc(Br)o1`, for which the IC50 is 10.5 µM and the IC90 is 15.5 µM.
For `O[C@@H](c1cc(C(F)(F)F)nc2c(C(F)(F)F)cccc12)[C@H]1CCCCN1`, the IC50 was 22.7 µM and the IC90 worked out at 25.5 µM.
Regarding `COc1ccc(C=C2C=C(C(C)(C)C)C(=O)C(C(C)(C)C)=C2)cc1OC`, the IC50 was 4.94 µM and the IC90 was 7.13 µM.
For the compound `O=C(CSc1nc2ccccc2c(=O)[nH]1)NCc1ccc(Cl)cc1`, the IC50 was 2.78 µM and the IC90 amounted to 3.22 µM.
For `NC(=O)CSc1nnc(COc2ccc3ccccc3c2)o1` the same measures were 20.8 µM and 27.3 µM.
For the compound `c1ccc(Cn2c3ccccc3c3nnc(SCCN4CCCCC4)nc32)cc1`, the IC50 is 27.5 µM and the IC90 was 42.1 µM.
For `O=C(c1cc2cc(F)ccc2[nH]1)N(Cc1cccnc1)CC1CCCN(C2CCCCC2)C1` (configuration not stated) the same measures were 42.6 µM and 46.1 µM.
For `CCCCn1c(SCc2ncc(-c3ccccc3)o2)nc2cc(S(N)(=O)=O)ccc21` the same measures were 5.25 µM and 8.34 µM.
Take `COc1cccc(CC2(CO)CCCN(Cc3[nH]c4ccc(C)cc4c3C)C2)c1` (configuration not stated): the IC50 is 40.8 µM and the IC90 was 55.8 µM.
`N=c1n(Cc2ccc(Cl)cc2)c2ccccc2n1CC(O)COc1ccccc1` (configuration not stated): the IC50 is 22.7 µM and the IC90 stood at 27.2 µM.
In the case of `Cc1ccc(-n2nnc3c(=O)oc4ccccc4c32)cc1`, the IC50 was 1.88 µM and the IC90 is over 100 µM.
On to `CC1CCCC(C)N1/N=C/c1c[nH]c2ccc(Br)cc12` (configuration not stated), for which the IC50 is 22.7 µM and the IC90 amounted to 29.1 µM.
For `CN(C)CCCN(C(=O)c1ccc([N+](=O)[O-])s1)c1nc2cc3c(cc2s1)OCCO3` the same measures were 35.8 µM and 62.2 µM.
Taken in the same sequence, the figures for `O=C(CSc1nc2ncc(Br)cc2[nH]1)Nc1ccc2c(c1)OCO2` were 25.1 µM and over 100 µM.
Take `COc1ccccc1/C=C/C(=O)Nc1ccc(S(=O)(=O)Nc2cc(C)on2)cc1`: the IC50 is 28.5 µM and the IC90 was determined as 57.1 µM.
`COC(=O)CCc1sc(Nc2ccc(Br)cc2)nc1-c1ccc(OC)cc1`: the IC50 is 40.9 µM and the IC90 is over 100 µM.
On to `CC1(c2ccc(OC(F)F)cc2)NC(=O)N(CC(=O)c2ccc3c(c2)OCO3)C1=O` (configuration not stated), for which the IC50 was 37.2 µM and the 90% effect concentration (IC90) was 70.8 µM.
For `COc1ccc(C)c2sc(N(CCN(C)C)C(=O)/C=C/c3cccs3)nc12` the same measures were 30.6 µM and 36.1 µM.

A word on the IC50: it is the point on the concentration scale where inhibition reaches its midpoint. As usually defined, the IC90 is the point of the concentration-response curve where the effect stands at 90%. A lower IC90 goes with greater potency.
